Measurements taken from patent US20230085307A1, “PYRIDAZINONE COMPOUND AND HERBICIDE” (NISSAN CHEMICAL CORPORATION, priority 2019, published 2023).

What was measured:
rice flat sedge = assay: Test Example 3: herbicidal effect by foliage application, Wagner pot (Table 18, symbol E); type: in vivo, rice flat sedge (Cyperus iria)
How it was run: (§1)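 Plants were sown in alluvial soil held under 0.1–0.5 cm standing water and grown 14 days in a greenhouse at 25–30 °C. An emulsifiable formulation, water-diluted to the set dose, was then sprayed onto the foliage, and effects were scored three weeks later using previously defined criteria.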

late watergrass [1] = assay: Test Example 1: herbicidal activity, application before weed generation under submerged conditions (Table 16, symbol A); type: in vivo, late watergrass (Echinochloa oryzicola); details: 320 g/ha applied herbicide
How it was run: (§2)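 Emulsion formulation, water-diluted to set dose, was put onto the flooded surface (4 cm depth, alluvial soil) the same day weeds were sown and 2.5-leaf rice transplanted. After 3 weeks at 25-30 °C under glass, each species was rated 0 (≤5% kill) to 5 (≥90% kill).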

Japanese bulrush [2] = assay: Test Example 1: herbicidal activity, application before weed generation under submerged conditions (Table 16, symbol B); type: in vivo, Japanese bulrush (Schoenoplectus juncoides); details: 320 g/ha applied herbicide
How it was run: as §2

barnyard grass [3] = assay: Test Example 3: herbicidal effect by foliage application, Wagner pot (Table 18, symbol H); type: in vivo, barnyard grass (Echinochloa crus-galli)
How it was run: as §1

Chinese sprangletop = assay: Test Example 3: herbicidal effect by foliage application, Wagner pot (Table 18, symbol D); type: in vivo, chinese sprangletop (Leptochloa chinensis)
How it was run: as §1

oval-leafed pondweed [4] = assay: Test Example 1: herbicidal activity, application before weed generation under submerged conditions (Table 16, symbol C); type: in vivo, oval-leafed pondweed (Monochoria vaginalis); details: 320 g/ha applied herbicide
How it was run: as §2

oval-leafed pondweed [5] = assay: Test Example 2: herbicidal activity, application during weed generation under submerged conditions (Table 17, symbol C); type: in vivo, oval-leafed pondweed (Monochoria vaginalis); details: AAH 320 g/ha; application during weed generation, submerged conditions
How it was run: (§3)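 Effect on each weed is rated three weeks post-treatment, using the same scoring criteria as the preceding test. Plants grow from mixed-sown seed in flooded alluvial soil (4 cm water) at 25° C. to 30° C., and are treated at one to two leaves with diluted emulsion dropped onto the water.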

late watergrass [6] = assay: Test Example 2: herbicidal activity, application during weed generation under submerged conditions (Table 17, symbol A); type: in vivo, late watergrass (Echinochloa oryzicola); details: AAH 320 g/ha; application during weed generation, submerged conditions
How it was run: as §3

Japanese bulrush [7] = assay: Test Example 2: herbicidal activity, application during weed generation under submerged conditions (Table 17, symbol B); type: in vivo, Japanese bulrush (Schoenoplectus juncoides); details: AAH 320 g/ha; application during weed generation, submerged conditions
How it was run: as §3

velvetleaf [8] = assay: Test Example 5: herbicidal effect by foliage application, plastic box (Table 20, symbol M); type: in vivo, velvetleaf (Abutilon theophrasti); details: amount of applied herbicide 320 g/ha; foliage application after 14-day growth; evaluated three weeks after application
How it was run: (§4)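 Plants were sown into sterilized diluvial soil under about 1.5 cm cover and kept in a greenhouse at 25° C. to 30° C. Fourteen days on, foliage received an even spray of the diluted emulsion. Herbicidal or crop effect was judged three weeks afterwards.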

lambsquarters [9] = assay: Test Example 4: herbicidal effect by soil treatment (Table 19, symbol O); type: in vivo, lambsquarters (Chenopodium album); details: amount of applied herbicide 320 g/ha
How it was run: (§5)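 In this soil treatment, the formulated compound reached the seeds only through the soil: seeds were buried about 1.5 cm deep in sterilized diluvial soil, then the diluted emulsion was sprayed over the surface. After three weeks at 25° C. to 30° C. in a greenhouse, effects were graded on criteria from an earlier test.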

blackgrass [10] = assay: Test Example 5: herbicidal effect by foliage application, plastic box (Table 20, symbol J); type: in vivo, blackgrass (Alopecurus myosuroides); details: amount of applied herbicide 320 g/ha; foliage application after 14-day growth; evaluated three weeks after application
How it was run: as §4

redroot pigweed [11] = assay: Test Example 4: herbicidal effect by soil treatment (Table 19, symbol N); type: in vivo, redroot pigweed (Amaranthus retroflexus); details: amount of applied herbicide 320 g/ha
How it was run: as §5

chickweed [12] = assay: Test Example 4: herbicidal effect by soil treatment (Table 19, symbol P); type: in vivo, common chickweed (Stellaria media); details: amount of applied herbicide 320 g/ha
How it was run: as §5

windgrass [13] = assay: Test Example 5: herbicidal effect by foliage application, plastic box (Table 20, symbol L); type: in vivo, windgrass (Apera spica-venti); details: amount of applied herbicide 320 g/ha; foliage application after 14-day growth; evaluated three weeks after application
How it was run: as §4

wild oat [14] = assay: Test Example 5: herbicidal effect by foliage application, plastic box (Table 20, symbol I); type: in vivo, wild oat (Avena fatua); details: amount of applied herbicide 320 g/ha; foliage application after 14-day growth; evaluated three weeks after application
How it was run: as §4

persian speedwell [15] = assay: Test Example 4: herbicidal effect by soil treatment (Table 19, symbol R); type: in vivo, Persian speedwell (Veronica persica); details: amount of applied herbicide 320 g/ha
How it was run: as §5

green foxtail [16] = assay: Test Example 4: herbicidal effect by soil treatment (Table 19, symbol G); type: in vivo, green foxtail (Setaria viridis); details: amount of applied herbicide 320 g/ha
How it was run: as §5

green foxtail [17] = assay: Test Example 5: herbicidal effect by foliage application, plastic box (Table 20, symbol G); type: in vivo, green foxtail (Setaria viridis); details: amount of applied herbicide 320 g/ha; foliage application after 14-day growth; evaluated three weeks after application
How it was run: as §4

velvetleaf [18] = assay: Test Example 4: herbicidal effect by soil treatment (Table 19, symbol M); type: in vivo, velvetleaf (Abutilon theophrasti); details: amount of applied herbicide 320 g/ha
How it was run: as §5

barnyard grass [19] = assay: Test Example 5: herbicidal effect by foliage application, plastic box (Table 20, symbol H); type: in vivo, barnyard grass (Echinochloa crus-galli); details: amount of applied herbicide 320 g/ha; foliage application after 14-day growth; evaluated three weeks after application
How it was run: as §4

lambsquarters [20] = assay: Test Example 5: herbicidal effect by foliage application, plastic box (Table 20, symbol O); type: in vivo, lambsquarters (Chenopodium album); details: amount of applied herbicide 320 g/ha; foliage application after 14-day growth; evaluated three weeks after application
How it was run: as §4

wild oat [21] = assay: Test Example 4: herbicidal effect by soil treatment (Table 19, symbol I); type: in vivo, wild oat (Avena fatua); details: amount of applied herbicide 320 g/ha
How it was run: as §5

Italian ryegrass [22] = assay: Test Example 4: herbicidal effect by soil treatment (Table 19, symbol K); type: in vivo, Italian ryegrass (Lolium multiflorum); details: amount of applied herbicide 320 g/ha
How it was run: as §5

barnyard grass [23] = assay: Test Example 4: herbicidal effect by soil treatment (Table 19, symbol H); type: in vivo, barnyard grass (Echinochloa crus-galli); details: amount of applied herbicide 320 g/ha
How it was run: as §5

Italian ryegrass [24] = assay: Test Example 5: herbicidal effect by foliage application, plastic box (Table 20, symbol K); type: in vivo, Italian ryegrass (Lolium multiflorum); details: amount of applied herbicide 320 g/ha; foliage application after 14-day growth; evaluated three weeks after application
How it was run: as §4

southern crabgrass [25] = assay: Test Example 5: herbicidal effect by foliage application, plastic box (Table 20, symbol F); type: in vivo, southern crabgrass (Digitaria ciliaris); details: amount of applied herbicide 320 g/ha; foliage application after 14-day growth; evaluated three weeks after application
How it was run: as §4

persian speedwell [26] = assay: Test Example 5: herbicidal effect by foliage application, plastic box (Table 20, symbol R); type: in vivo, Persian speedwell (Veronica persica); details: amount of applied herbicide 320 g/ha; foliage application after 14-day growth; evaluated three weeks after application
How it was run: as §4

redroot pigweed [27] = assay: Test Example 5: herbicidal effect by foliage application, plastic box (Table 20, symbol N); type: in vivo, redroot pigweed (Amaranthus retroflexus); details: amount of applied herbicide 320 g/ha; foliage application after 14-day growth; evaluated three weeks after application
How it was run: as §4

southern crabgrass [28] = assay: Test Example 4: herbicidal effect by soil treatment (Table 19, symbol F); type: in vivo, southern crabgrass (Digitaria ciliaris); details: amount of applied herbicide 320 g/ha
How it was run: as §5

windgrass [29] = assay: Test Example 4: herbicidal effect by soil treatment (Table 19, symbol L); type: in vivo, windgrass (Apera spica-venti); details: amount of applied herbicide 320 g/ha
How it was run: as §5

chickweed [30] = assay: Test Example 5: herbicidal effect by foliage application, plastic box (Table 20, symbol P); type: in vivo, common chickweed (Stellaria media); details: amount of applied herbicide 320 g/ha; foliage application after 14-day growth; evaluated three weeks after application
How it was run: as §4

blackgrass [31] = assay: Test Example 4: herbicidal effect by soil treatment (Table 19, symbol J); type: in vivo, blackgrass (Alopecurus myosuroides); details: amount of applied herbicide 320 g/ha
How it was run: as §5

[32] = amount of applied herbicide 320 g/ha

Cc1nn(C)c(=O)c(-c2c(-c3ccc(CS(C)(=O)=O)cc3)sc3ccc(F)cc23)c1O [2-334]
herbicidal effect on E: rice flat sedge (rice flat sedge; [32]): 5 (Herbicidal rate of 90% or more (almost completely withered)) | Herbicidal effect on A: late watergrass (grade 0-5) (late watergrass [1]): 3 (Herbicidal rate of 40% or more and less than 70%) | Herbicidal effect on B: Japanese bulrush (grade 0-5) (Japanese bulrush [2]): 0 (Herbicidal rate of 5% or less (almost no effect)) | herbicidal effect on H: barnyard grass (barnyard grass [3]; [32]): 5 (Herbicidal rate of 90% or more (almost completely withered)) | herbicidal effect on D: Chinese sprangletop (Chinese sprangletop; [32]): 4 (Herbicidal rate of 70% or more and less than 90%) | Herbicidal effect on C: oval-leafed pondweed (grade 0-5) (oval-leafed pondweed [4]): 0 (Herbicidal rate of 5% or less (almost no effect)) | herbicidal effect rating, C: oval-leafed pondweed (oval-leafed pondweed [5]): 0 (Herbicidal rate of 5% or less (almost no effect)) | herbicidal effect rating, A: late watergrass (late watergrass [6]): 3 (Herbicidal rate of 40% or more and less than 70%) | herbicidal effect rating, B: Japanese bulrush (Japanese bulrush [7]): 0 (Herbicidal rate of 5% or less (almost no effect))

Cc1nn(C)c(=O)c(-c2c(-c3ccccc3OC(F)F)sc3cc(F)c(F)cc23)c1O [5-021]
herbicidal effect on rice flat sedge (E) (rice flat sedge; 320 g/ha): 5 (Herbicidal rate of 90% or more (almost completely withered)) | Herbicidal effect by foliage application, M: velvetleaf (velvetleaf [8]): 5 (Herbicidal rate of 90% or more (almost completely withered)) | O: lambsquarters, herbicidal effect grade (lambsquarters [9]): 3 (Herbicidal rate of 40% or more and less than 70%) | Herbicidal effect by foliage application, J: blackgrass (blackgrass [10]): 4 (Herbicidal rate of 70% or more and less than 90%) | N: redroot pigweed, herbicidal effect grade (redroot pigweed [11]): 4 (Herbicidal rate of 70% or more and less than 90%) | P: chickweed, herbicidal effect grade (chickweed [12]): 2 (Herbicidal rate of 20% or more and less than 40%) | Herbicidal effect by foliage application, L: windgrass (windgrass [13]): 5 (Herbicidal rate of 90% or more (almost completely withered)) | Herbicidal effect by foliage application, I: wild oat (wild oat [14]): 2 (Herbicidal rate of 20% or more and less than 40%) | herbicidal effect on barnyard grass (H) (barnyard grass [3]; 320 g/ha): 4 (Herbicidal rate of 70% or more and less than 90%) | R: persian speedwell, herbicidal effect grade (persian speedwell [15]): 5 (Herbicidal rate of 90% or more (almost completely withered)) | G: green foxtail, herbicidal effect grade (green foxtail [16]): 5 (Herbicidal rate of 90% or more (almost completely withered)) | herbicidal effect on Chinese sprangletop (D) (Chinese sprangletop; 320 g/ha): 3 (Herbicidal rate of 40% or more and less than 70%) | Herbicidal effect by foliage application, G: green foxtail (green foxtail [17]): 5 (Herbicidal rate of 90% or more (almost completely withered)) | M: velvetleaf, herbicidal effect grade (velvetleaf [18]): 4 (Herbicidal rate of 70% or more and less than 90%) | herbicidal effect rating, C: oval-leafed pondweed (oval-leafed pondweed [5]): 0 (Herbicidal rate of 5% or less (almost no effect)) | herbicidal effect rating, A: late watergrass (late watergrass [6]): 0 (Herbicidal rate of 5% or less (almost no effect)) | Herbicidal effect by foliage application, H: barnyard grass (barnyard grass [19]): 4 (Herbicidal rate of 70% or more and less than 90%) | Herbicidal effect by foliage application, O: lambsquarters (lambsquarters [20]): 3 (Herbicidal rate of 40% or more and less than 70%) | I: wild oat, herbicidal effect grade (wild oat [21]): 0 (Herbicidal rate of 5% or less (almost no effect)) | K: Italian ryegrass, herbicidal effect grade (Italian ryegrass [22]): 0 (Herbicidal rate of 5% or less (almost no effect)) | H: barnyard grass, herbicidal effect grade (barnyard grass [23]): 4 (Herbicidal rate of 70% or more and less than 90%) | Herbicidal effect by foliage application, K: Italian ryegrass (Italian ryegrass [24]): 4 (Herbicidal rate of 70% or more and less than 90%) | Herbicidal effect by foliage application, F: southern crabgrass (southern crabgrass [25]): 5 (Herbicidal rate of 90% or more (almost completely withered)) | Herbicidal effect by foliage application, R: persian speedwell (persian speedwell [26]): 5 (Herbicidal rate of 90% or more (almost completely withered)) | Herbicidal effect by foliage application, N: redroot pigweed (redroot pigweed [27]): 4 (Herbicidal rate of 70% or more and less than 90%) | F: southern crabgrass, herbicidal effect grade (southern crabgrass [28]): 5 (Herbicidal rate of 90% or more (almost completely withered)) | herbicidal effect rating, B: Japanese bulrush (Japanese bulrush [7]): 2 (Herbicidal rate of 20% or more and less than 40%) | L: windgrass, herbicidal effect grade (windgrass [29]): 4 (Herbicidal rate of 70% or more and less than 90%) | Herbicidal effect by foliage application, P: chickweed (chickweed [30]): 5 (Herbicidal rate of 90% or more (almost completely withered)) | J: blackgrass, herbicidal effect grade (blackgrass [31]): 0 (Herbicidal rate of 5% or less (almost no effect))
